The source of these data is patent publication US20250041296A1, “NOVEL DOSING REGIMENS FOR MDM2 INHIBITORS” (NOVARTIS AG, priority 2018, published 2025).

For data set [1], the system named is AML/MDS subjects. Kind of data set: Clinical study CPDR001X2105, MBG453 single agent. The format is in vivo, human. The conditions noted are these: 400 mg Q2W and 800 mg Q4W. Here is the method: (§1) The MBG453 single agent RD has been determined as 800 mg Q4W in solid tumor subjects primarily based on PK and PKPD modeling of target (TIM-3) occupancy. MBG453 at the dose level of 800 mg Q4W was predicted to give sustained target occupancy of 90% in tumor in >90% of subjects. […] MBG453 single agent is also being evaluated in AML/MDS subjects in the CPDR001X2105 study with Q4W and Q2W regimens.
The RD in AML/MDS has not yet been determined, however it is not expected to be different from solid tumors, based on preliminary PK and safety data.

The test system of data set [2] is solid tumor subjects. Kind of data set: Clinical study CMBG453X2101, MBG453 single agent. It counts as in vivo, human. The conditions noted are these: any dose up to 1200 mg Q2W or Q4W. The protocol:
as §1

For data set [3], the system named is solid and hematological tumors. As to conditions: versus original day 1 to day 7 regimen of a 28-day cycle; cited from earlier work.
Data set [4] has as its system p53. The conditions noted are these: preclinical cell and in vivo models; cited from earlier work.
Data set [5] in a line: Population PK/PD model parameter estimates (NLME, Monolix) from the CHDM201X2101 dataset. Also noted: species or system human. The conditions noted are these: method=FIXED. The source says: For model building the PK/PD dataset of CHDM201X2101 were used and an NLME estimation (Monolix 4.3.2) performed. The model structure and the parameter estimates are provided below. This provided inputs for R/shiny. The m/xR package were used for simulation of longitudinal data from the MLXTRAN model.

For data set [6], the system named is R/R AML subjects. Kind of data set: Clinical study CHDM201X2101, single agent HDM201. The format is in vivo, human. The protocol:
HDM201 is a novel investigational agent with promising single-agent activity in AML patients. Study CHDM201X2101 investigated several dose regimens of single agent HDM201 in R/R AML subjects. CR/CRi rate of 24% was reported in subjects with R/R AML who received oral HDM201 at a dose of 45 mg from D1 to D7 every 4 weeks (Q4W) (Regimen 2C), which was the dose assessed as recommended dose for expansion (RDE).
The starting dose and regimen selection for HDM201 in dose escalation is based on the previous Phase I dose escalation and expansion study of HDM201 as a single-agent in subjects with R/R AML ([HDM201X2101]). In this Phase I study, HDM201 was investigated in subjects with solid tumors and hematological malignancies. A total of 27 subjects with hematological malignancies (26 AML and one acute lymphoblastic leukemia (ALL)) have been enrolled across various regimens. […] According to HDM201X2101, Regimen 2C was determined to be the recommended Phase 2 dose (RP2D) for further development of HDM201 as a single-agent.
With this regimen, the RD has been determined as 45 mg HDM201 in hematological tumors in the CHDM201X2101 study. […] Proceedings of the American Association for Cancer Research Annual Meeting 2017; 2017 Apr. 1-5; Washington, DC. Philadelphia (PA): AACR; Cancer Res 2017; 77(13 Suppl):Abstract nr CT154. doi:10.1158/1538-7445.AM2017-CT154).

Setting [7] is: R/R AML subjects, single agent HDM201.
Where [8] appears, read: subjects treated at RDE (Regimen 2C: 45 mg D1 to D7 Q4W).

On to “MBG453: TIM-3 inhibitor MBG453 (Novartis), given by i.v. infusion”, for which the tolerability entry in data set [1] was “well tolerated”. Besides, the safety signal entry in data set [2] was “No significant safety signal”.

Consider `COc1ncc(-c2nc3c(n2C(C)C)[C@H](c2ccc(Cl)cc2)N(c2cc(Cl)cn(C)c2=O)C3=O)c(OC)n1` [HDM201, (S)-5-(5-Chloro-1-methyl-2-oxo-1,2-dihydro-pyridin-3-yl)-6-(4-chloro-phenyl)-2-(2,4-dimethoxy-pyrimidin-5-yl)-1-isopropyl-5,6-dihydro-1H-pyrrolo[3,4-d]imidazol-4-one], for which the “anti-tumor activity when administration is shortened to 5 consecutive days” value in data set [3] is listed as “relevant anti-tumor activity”. In data set [4], the “effect on p53 function” value was “restore p53 function”. Also, in data set [5], the pop_Cl entry is “pop_Cl = 6.18 [method=FIXED],”, the pop_V entry is “pop_V = 119 [method=FIXED],” and the pop_ka entry was “pop_ka = 0.489 [method=FIXED],”. The “most common grade 3/4 AE reported as suspected to study treatment” value in data set [6] (27 subjects with hematological malignancies across various regimens) was “thrombocytopenia, neutropenia, anemia and Tumor Lysis Syndrome (TLS)”. This compound also returned a CR/CRi rate in data set [6] (R/R AML subjects, oral 45 mg D1 to D7 Q4W (Regimen 2C)) of 24%. Moreover, in data set [6] (setting [7]), the duration of responses entry is on record as “up to 152 days” and the “time at which response was seen” value was “within the first two cycles”. Also, in data set [6] (setting [8]), the “gastro-intestinal AEs, grade” value is given as “only low grade” and the “tumor lysis syndrome (TLS) Grade 3 or 4” value is recorded as “about 10%”.
